Measurements published in US6908940B2, “Imidazole compounds and their use as adenosine deaminase inhibitors” (Fujisawa Pharmaceutical Co., Ltd., priority 2000, dated 2005).

Target: T1, Human ADA (Homo sapiens, UniProt P00813)
T1 construct: made in house
T1 sequence (P00813 1-363): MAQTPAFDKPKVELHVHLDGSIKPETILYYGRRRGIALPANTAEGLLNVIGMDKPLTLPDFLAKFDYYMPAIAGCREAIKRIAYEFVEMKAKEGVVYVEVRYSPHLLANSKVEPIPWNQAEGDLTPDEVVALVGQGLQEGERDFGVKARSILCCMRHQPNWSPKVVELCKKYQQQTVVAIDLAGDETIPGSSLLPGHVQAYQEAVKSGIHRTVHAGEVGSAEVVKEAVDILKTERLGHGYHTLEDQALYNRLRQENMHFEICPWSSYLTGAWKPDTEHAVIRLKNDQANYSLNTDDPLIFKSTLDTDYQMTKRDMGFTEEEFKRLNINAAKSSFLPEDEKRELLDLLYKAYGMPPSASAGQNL
Assay: Adenosine Deaminase (ADA) Enzyme Assay
Type: biochemical
Settings: 50% inhibition of Vmax vs vehicle; 0.16 μg/ml ADA, 0.1 mM adenosine, phosphate buffer saline pH 7.4, room temperature, decrease in A265 for 3 minutes
Description: Adenosine Deaminase (ADA) Enzyme Assay
• 1-{(2S,3R)-2-hydroxy-5-[2-(3-(4-chlorophenyl)propoxy)-phenyl]-3-pentyl}imidazole-4-carboxamide (Example 8) • 1-[(2S,3R)-2-hydroxy-5-(7-chloro-1-naphthyl)-3-pentyl]-imidazole-4-carboxamide (Example 12) Test Method:
The reaction velocity (V) is measured by a change in absorbance at 265 nm (A265) resulting from the deamination of adenosine. Human ADA was expressed and purified from ADA-deficient bacterial strain. Reaction mixtures of a total volume of 200 μl contained 0.16 μg/ml of ADA and 0.1 mM of adenosine and test compound in 10 mM phosphate buffer saline (pH 7.4). The reaction was started by addition of ADA to a mixture of adenosine and test compound. The reaction was followed at room temperature by recording decrease in A265 for 3 minutes in SPECTRAmax 250 (Molecular Devices, USA) to automatically calculate Vmax. Inhibitory potency of test compound was expressed as IC50 value, the drug concentration required to produce 50% inhibition of Vmax in comparison to vehicle treatment.

Compound: C[C@H](O)[C@@H](CCc1cccc2ccc(Cl)cc12)n1cnc(C(N)=O)c1 [Example 12, 1-[(2S,3R)-2-hydroxy-5-(7-chloro-1-naphthyl)-3-pentyl]imidazole-4-carboxamide]
- IC50: < 0.02 µM

Compound: C[C@H](O)[C@@H](CCc1ccccc1OCCCc1ccc(Cl)cc1)n1cnc(C(N)=O)c1 [Example 8, 1-{(2S,3R)-2-hydroxy-5-[2-(3-(4-chlorophenyl)propoxy)phenyl]-3-pentyl}imidazole-4-carboxamide]
- IC50: < 0.02 µM
